Read-outs that look alike come from different tables or passages of the source.
How the values were obtained:
cucumber fusarium wilt = assay: Fungicidal (bactericidal) activity in vitro, PDA colony diameter; type: cell-based; details: 50 mg/kg
Fusarium graminearumt = assay: microbe, parasite or virus in culture; type: cell-based; details: for Bactericidal activity (%) Fusarium graminearumt: 50 mg/kg
Rhizoctonia cereali = assay: Fungicidal (bactericidal) activity in vitro, PDA colony diameter; type: cell-based; details: 50 mg/kg
Cercospora arachidicola = assay: as above; type: cell-based; details: 50 mg/kg
[1] = system: tobacco mosaic virus (TMV); assay: Anti-TMV in vivo therapeutic effect; parameters: species or system tobacco mosaic virus (host Nicotiana tabacum L.cv.Xanthi NN)
potato late blight = assay: microbe, parasite or virus in culture; type: cell-based
corn borers [2] = assay: whole plant or invertebrate; details: read-out: Corn borer Mortality (%)
Botrytis cinerea = assay: Fungicidal (bactericidal) activity in vitro, PDA colony diameter; type: cell-based; details: 50 mg/kg
cotton bollworms = assay: whole plant or invertebrate; details: for Cotton bollworm Mortality (%): concentration 600 mg/kg
Experimental: Experimental method of cotton bollworms: feed and drug mixing method: measure 3 mL of prepared solution and add it to about 27 g of newly prepared feed, thereby obtaining needed concentration through dilution by 10 times.

[3] = system: tobacco mosaic virus (TMV); assay: Anti-TMV in vivo inactivation; parameters: species or system tobacco mosaic virus (host Nicotiana tabacum L.cv.Xanthi NN)
[4] = system: armyworms, cotton bollworms and corn borers; assay: Insecticidal activity, overall statements on Table 3; type: in vivo; details: Table 3, 600 mg/kg
Fusarium fujikuroi = assay: Fungicidal (bactericidal) activity in vitro, PDA colony diameter; type: cell-based
Macrophoma kawatsukai = assay: as above; type: cell-based; details: 50 mg/kg
Sclerotinia scleotiorum = assay: as above; type: cell-based; details: 50 mg/kg
[5] = system: tobacco mosaic virus (TMV); assay: Anti-TMV in vitro effect (half-leaf soaking); type: cell-based, tobacco mosaic virus (host Nicotiana tabacum L.cv.Xanthi NN)
[6] = system: tobacco mosaic virus (TMV); assay: Anti-TMV in vivo protective effect; parameters: species or system tobacco mosaic virus (host Nicotiana tabacum L.cv.Xanthi NN)
armyworms = type: in vivo; details: concentration 600 mg/kg
Bipolaria maydis = assay: organism not typed; type: cell-based; details: for Bactericidal activity (%) Bipolaria maydis: 50 mg/kg
Phytophthora capsici = assay: Fungicidal (bactericidal) activity in vitro, PDA colony diameter; type: cell-based; details: 50 mg/kg
Rhizoctonia solani = assay: as above; type: cell-based; details: 50 mg/kg
[7] = system: Colletotrichum orbiculare; assay: as above; type: cell-based; details: 50 mg/kg
Alternaria solani = assay: as above; type: cell-based; details: 50 mg/kg
mosquito larvae = assay: whole plant or invertebrate; details: for activity against culex pipiens larvae (in words): at 5 mg/kg
How it was run: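 Compound dissolved in acetone (or other solvent) to a 1000 ppm stock and diluted in water to 5 ppm. Ten Culex pipiens pallens larvae at the start of the fourth instar, laboratory-reared, added per beaker; solvent-only aqueous control.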

corn borers [8] = details: concentration 600 mg/kg
[9] = system: tobacco mosaic virus (TMV); assay: Anti-TMV activity, overall statements on Table 1; type: in vivo, tobacco mosaic virus (host Nicotiana tabacum L.cv.Xanthi NN); details: 100 μg/mL versus ningnanmycin at 100 μg/mL
[10] = Culex pipiens, 24 h, read-out: Mosquito larvae Mortality (%)

With `C[C@@H]1N[C@H](C(=O)N/N=C/c2ccccc2)Cc2c1[nH]c1ccccc21` [Ic-1, (1S, 3S)—N′-benzylidene-1-methyl-2,3,4,9-tetrahydropyridino [3,4-b] indol-3-formylhydrazine] the inhibition of growth at 50 mg/kg (cucumber fusarium wilt; Fusarium, 96 h) was 36.4%, the inhibition of growth at 50 mg/kg (Fusarium graminearumt; Fusarium, 96 h, read-out: Bactericidal activity (%) Fusarium graminearumt) was 53.8% and the inhibition of growth at 50 mg/kg (Rhizoctonia cereali; Rhizoctonia, 96 h) was 86.5%. It also gave an inhibition of growth at 50 mg/kg (Cercospora arachidicola; Mycosphaerella arachidis, 96 h) of 72.7%, an inhibition at 100 µg/mL ([1]; Tobacco mosaic virus, treatment dose 100 μg/mL, read-out: Relative inhibition rate (%) In vivo therapy) of 16% and an inhibition at 500 µg/mL ([1]; Tobacco mosaic virus, treatment dose 500 μg/mL, read-out: Relative inhibition rate (%) In vivo therapy) of 51.5%. It also gave an inhibition of growth at 50 mg/kg (potato late blight; Phytophthora infestans, 96 h, read-out: Bactericidal activity (%) potato late blight) of 30.4%, a mortality at 600 mg/kg (corn borers [2]) of 60% and an inhibition of growth at 50 mg/kg (Botrytis cinerea; Botrytis cinerea, 96 h) of 88.9%. It also gave a mortality at 600 mg/kg (cotton bollworms; Helicoverpa armigera, in Gossypium hirsutum, read-out: Cotton bollworm Mortality (%)) of 55%, an inhibition at 100 µg/mL ([3]; Tobacco mosaic virus, treatment dose 100 μg/mL, read-out: Relative inhibition rate (%) In vivo inactivation) of 19.6% and an inhibition at 500 µg/mL ([3]; Tobacco mosaic virus, treatment dose 500 μg/mL, read-out: Relative inhibition rate (%) In vivo inactivation) of 56.3%. For the same compound, the “activity against armyworms, cotton bollworms and corn borers (in words)” value (“activity against armyworms” below) [4] was “broad-spectrum activity”, the inhibition of growth at 50 mg/kg (Fusarium fujikuroi; Fusarium fujikuroi, 96 h, 50 mg/kg) was 58.8% and the inhibition at 50 mg/kg (Macrophoma kawatsukai) was 36.4%. The inhibition of growth at 50 mg/kg (Sclerotinia scleotiorum; Sclerotinia, 96 h) was 26.9%, the inhibition at 100 µg/mL ([5]; Tobacco mosaic virus, treatment dose 100 μg/mL, read-out: Relative inhibition rate (%) In vitro activity) was 28.4% and the inhibition at 500 µg/mL ([5]; Tobacco mosaic virus, treatment dose 500 μg/mL, read-out: Relative inhibition rate (%) In vitro activity) was 55.8%. The inhibition at 100 µg/mL ([6]; Tobacco mosaic virus, treatment dose 100 μg/mL, read-out: Relative inhibition rate (%) In vivo protection) was 21.8%, the inhibition at 500 µg/mL ([6]; Tobacco mosaic virus, treatment dose 500 μg/mL, read-out: Relative inhibition rate (%) In vivo protection) was 53.2% and the “Armyworm Mortality (%)” value (armyworms) was 75%. It also gave an inhibition at 50 mg/kg (Bipolaria maydis; read-out: Bactericidal activity (%) Bipolaria maydis) of 60%, an inhibition of growth at 50 mg/kg (Phytophthora capsici; Phytophthora capsici, 96 h) of 69.7% and an inhibition of growth at 50 mg/kg (Rhizoctonia solani; Rhizoctonia solani, 96 h) of 48.6%. It also gave an inhibition of growth at 50 mg/kg ([7]; Colletotrichum orbiculare, 96 h) of 52%, an inhibition of growth at 50 mg/kg (Alternaria solani; Alternaria solani, 96 h) of 57.1% and a mortality at 5 mg/kg (mosquito larvae; [10]) of 80%. The mortality at 10 mg/kg (mosquito larvae; [10]) was 100% and the “activity against culex pipiens larvae (in words)” value (mosquito larvae) was “still show high activity”.

In the case of `COc1ccc(C=NNC(=O)[C@@H]2Cc3c([nH]c4ccccc34)[C@H](C)N2)cc1OC` [Ic-11, (1S, 3S)—N′-(3,4-dimethoxybenzylidene)-1-methyl-2,3,4,9-tetrahydropyridino [3,4-b] indol-3-formylhydrazine], the “Bactericidal activity (%) Cucumber fusarium wilt” value (cucumber fusarium wilt) is reported as 22.7%, the “Bactericidal activity (%) Fusarium graminearumt” value (Fusarium graminearumt) is reported as 30.8% and the “Bactericidal activity (%) Rhizoctonia cereali” value (Rhizoctonia cereali) is reported as 89.2%. For the same compound, the “Bactericidal activity (%) Cercospora arachidicola” value (Cercospora arachidicola) was 45.5%, the “Relative inhibition rate (%) In vivo therapy” value ([1]; treatment dose 100 μg/mL) was 16.2% and the “Relative inhibition rate (%) In vivo therapy” value ([1]; treatment dose 500 μg/mL) was 40.5%. For the same compound, the “Bactericidal activity (%) potato late blight” value (potato late blight) was 30.4%, the “Bactericidal activity (%) Botrytis cinerea” value (Botrytis cinerea) was 66.7% and the “Cotton bollworm Mortality (%)” value (cotton bollworms) was 40%. For the same compound, the “Relative inhibition rate (%) In vivo inactivation” value ([3]; treatment dose 100 μg/mL) was 20.3%, the “Relative inhibition rate (%) In vivo inactivation” value ([3]; treatment dose 500 μg/mL) was 47.1% and the “Corn borer Mortality (%)” value (corn borers [8]) was 55%. For the same compound, the “activity against armyworms” value [4] was “broad-spectrum activity”, the “Bactericidal activity (%) Fusarium fujikuroi” value (Fusarium fujikuroi) was 47.1% and the “Bactericidal activity (%) Macrophoma kawatsukai” value (Macrophoma kawatsukai) was 66.7%. The “Bactericidal activity (%) Sclerotinia scleotiorum” value (Sclerotinia scleotiorum) was 21.2%, the “Relative inhibition rate (%) In vitro activity” value ([5]; treatment dose 100 μg/mL) was 7.8% and the “Relative inhibition rate (%) In vitro activity” value ([5]; treatment dose 500 μg/mL) was 37.2%. The “Relative inhibition rate (%) In vivo protection” value ([6]; treatment dose 100 μg/mL) was 11%, the “Relative inhibition rate (%) In vivo protection” value ([6]; treatment dose 500 μg/mL) was 42.3% and the “Armyworm Mortality (%)” value (armyworms) was 65%. The “Bactericidal activity (%) Bipolaria maydis” value (Bipolaria maydis) was 52.0%, the “Bactericidal activity (%) Phytophthora capsici” value (Phytophthora capsici) was 84.8% and the “Bactericidal activity (%) Rhizoctonia solani” value (Rhizoctonia solani) was 44.4%. The “Bactericidal activity (%) Colletotrichum orbiculare” value [7] was 72.0%, the “Bactericidal activity (%) Alternaria solani” value (Alternaria solani) was 52.4% and the “Mosquito larvae Mortality (%)” value (mosquito larvae; concentration 5 mg/kg, 24 h) was 40%. The “Mosquito larvae Mortality (%)” value (mosquito larvae; concentration 10 mg/kg, 24 h) was 100%.

`C[C@@H]1N[C@H](C(=O)NN=Cc2ccc[nH]2)Cc2c1[nH]c1ccccc21` [Ic-19, (1S, 3S)—N′-(pyrrole-2-methylene)-1-methyl-2,3,4,9-tetrahydropyridino [3,4-b] indol-3-formylhydrazine] was tested, and the “Bactericidal activity (%) Cucumber fusarium wilt” value (cucumber fusarium wilt) was 23.1%, the “Bactericidal activity (%) Fusarium graminearumt” value (Fusarium graminearumt) was 41.4% and the “Bactericidal activity (%) Rhizoctonia cereali” value (Rhizoctonia cereali) was 74.5%. For the same compound, the “Bactericidal activity (%) Cercospora arachidicola” value (Cercospora arachidicola) was 23.5%, the “Relative inhibition rate (%) In vivo therapy” value ([1]; treatment dose 100 μg/mL) was 27.8% and the “Relative inhibition rate (%) In vivo therapy” value ([1]; treatment dose 500 μg/mL) was 63.4%. The “anti-TMV activity compared with ningnanmycin” value [9] was “equivalent to the activity of commercial variety ningnanmycin”, the “Bactericidal activity (%) potato late blight” value (potato late blight) was 24.0% and the “Bactericidal activity (%) Botrytis cinerea” value (Botrytis cinerea) was 22.7%. For the same compound, the “Cotton bollworm Mortality (%)” value (cotton bollworms) was 50%, the “Relative inhibition rate (%) In vivo inactivation” value ([3]; treatment dose 100 μg/mL) was 20.2% and the “Relative inhibition rate (%) In vivo inactivation” value ([3]; treatment dose 500 μg/mL) was 61.3%. The “Corn borer Mortality (%)” value (corn borers [8]) was 60%, the “activity against armyworms” value [4] was “broad-spectrum activity” and the “Bactericidal activity (%) Fusarium fujikuroi” value (Fusarium fujikuroi; 50 mg/kg) was 14.3%. The “Bactericidal activity (%) Macrophoma kawatsukai” value (Macrophoma kawatsukai) was 97.2%, the “Bactericidal activity (%) Sclerotinia scleotiorum” value (Sclerotinia scleotiorum) was 58.8% and the “Relative inhibition rate (%) In vitro activity” value ([5]; treatment dose 100 μg/mL) was 8.8%. For the same compound, the “Relative inhibition rate (%) In vitro activity” value ([5]; treatment dose 500 μg/mL) was 49.5%, the “Relative inhibition rate (%) In vivo protection” value ([6]; treatment dose 100 μg/mL) was 30% and the “Relative inhibition rate (%) In vivo protection” value ([6]; treatment dose 500 μg/mL) was 54.7%. For the same compound, the “Armyworm Mortality (%)” value (armyworms) was 70%, the “Bactericidal activity (%) Bipolaria maydis” value (Bipolaria maydis) was 28.0% and the “Bactericidal activity (%) Phytophthora capsici” value (Phytophthora capsici) was 42.1%. The “Bactericidal activity (%) Rhizoctonia solani” value (Rhizoctonia solani) was 32.9%, the “Bactericidal activity (%) Colletotrichum orbiculare” value [7] was 29.6% and the “Bactericidal activity (%) Alternaria solani” value (Alternaria solani) was 15.0%. The “activity against culex pipiens larvae (in words)” value (mosquito larvae) was “still show high activity”, the “Mosquito larvae Mortality (%)” value (mosquito larvae; concentration 5 mg/kg, 24 h) was 80% and the “Mosquito larvae Mortality (%)” value (mosquito larvae; concentration 10 mg/kg, 24 h) was 100%.

Reference: patent publication US10208033B2, “β-carboline, dihydro-β-carboline and tetrahydro-β-carboline alkaloid derivatives and preparation methods same and use in aspects of preventing and treating plant viruses, fungicides and insecticides” (NANKAI UNIVERSITY, priority 2013, dated 2019)
